Measurements as given in patent US9549932B2, “2-(morpholin-4-yl)-1,7-naphthyridines” (BAYER PHARMA AKTIENGESELLSCHAFT, priority 2014, dated 2017).

These compounds were tested against full-length human ATR protein (Homo sapiens (Human), UniProt Q13535) (assay: Binding assay ATR (TR-FRET tracer displacement)). Conditions: tracer A, TR-FRET; read-out: ATR binding (tracer A) IC50.
Chain of full-length human ATR protein (Q13535 other isoform, or with tags, fused parts or gaps): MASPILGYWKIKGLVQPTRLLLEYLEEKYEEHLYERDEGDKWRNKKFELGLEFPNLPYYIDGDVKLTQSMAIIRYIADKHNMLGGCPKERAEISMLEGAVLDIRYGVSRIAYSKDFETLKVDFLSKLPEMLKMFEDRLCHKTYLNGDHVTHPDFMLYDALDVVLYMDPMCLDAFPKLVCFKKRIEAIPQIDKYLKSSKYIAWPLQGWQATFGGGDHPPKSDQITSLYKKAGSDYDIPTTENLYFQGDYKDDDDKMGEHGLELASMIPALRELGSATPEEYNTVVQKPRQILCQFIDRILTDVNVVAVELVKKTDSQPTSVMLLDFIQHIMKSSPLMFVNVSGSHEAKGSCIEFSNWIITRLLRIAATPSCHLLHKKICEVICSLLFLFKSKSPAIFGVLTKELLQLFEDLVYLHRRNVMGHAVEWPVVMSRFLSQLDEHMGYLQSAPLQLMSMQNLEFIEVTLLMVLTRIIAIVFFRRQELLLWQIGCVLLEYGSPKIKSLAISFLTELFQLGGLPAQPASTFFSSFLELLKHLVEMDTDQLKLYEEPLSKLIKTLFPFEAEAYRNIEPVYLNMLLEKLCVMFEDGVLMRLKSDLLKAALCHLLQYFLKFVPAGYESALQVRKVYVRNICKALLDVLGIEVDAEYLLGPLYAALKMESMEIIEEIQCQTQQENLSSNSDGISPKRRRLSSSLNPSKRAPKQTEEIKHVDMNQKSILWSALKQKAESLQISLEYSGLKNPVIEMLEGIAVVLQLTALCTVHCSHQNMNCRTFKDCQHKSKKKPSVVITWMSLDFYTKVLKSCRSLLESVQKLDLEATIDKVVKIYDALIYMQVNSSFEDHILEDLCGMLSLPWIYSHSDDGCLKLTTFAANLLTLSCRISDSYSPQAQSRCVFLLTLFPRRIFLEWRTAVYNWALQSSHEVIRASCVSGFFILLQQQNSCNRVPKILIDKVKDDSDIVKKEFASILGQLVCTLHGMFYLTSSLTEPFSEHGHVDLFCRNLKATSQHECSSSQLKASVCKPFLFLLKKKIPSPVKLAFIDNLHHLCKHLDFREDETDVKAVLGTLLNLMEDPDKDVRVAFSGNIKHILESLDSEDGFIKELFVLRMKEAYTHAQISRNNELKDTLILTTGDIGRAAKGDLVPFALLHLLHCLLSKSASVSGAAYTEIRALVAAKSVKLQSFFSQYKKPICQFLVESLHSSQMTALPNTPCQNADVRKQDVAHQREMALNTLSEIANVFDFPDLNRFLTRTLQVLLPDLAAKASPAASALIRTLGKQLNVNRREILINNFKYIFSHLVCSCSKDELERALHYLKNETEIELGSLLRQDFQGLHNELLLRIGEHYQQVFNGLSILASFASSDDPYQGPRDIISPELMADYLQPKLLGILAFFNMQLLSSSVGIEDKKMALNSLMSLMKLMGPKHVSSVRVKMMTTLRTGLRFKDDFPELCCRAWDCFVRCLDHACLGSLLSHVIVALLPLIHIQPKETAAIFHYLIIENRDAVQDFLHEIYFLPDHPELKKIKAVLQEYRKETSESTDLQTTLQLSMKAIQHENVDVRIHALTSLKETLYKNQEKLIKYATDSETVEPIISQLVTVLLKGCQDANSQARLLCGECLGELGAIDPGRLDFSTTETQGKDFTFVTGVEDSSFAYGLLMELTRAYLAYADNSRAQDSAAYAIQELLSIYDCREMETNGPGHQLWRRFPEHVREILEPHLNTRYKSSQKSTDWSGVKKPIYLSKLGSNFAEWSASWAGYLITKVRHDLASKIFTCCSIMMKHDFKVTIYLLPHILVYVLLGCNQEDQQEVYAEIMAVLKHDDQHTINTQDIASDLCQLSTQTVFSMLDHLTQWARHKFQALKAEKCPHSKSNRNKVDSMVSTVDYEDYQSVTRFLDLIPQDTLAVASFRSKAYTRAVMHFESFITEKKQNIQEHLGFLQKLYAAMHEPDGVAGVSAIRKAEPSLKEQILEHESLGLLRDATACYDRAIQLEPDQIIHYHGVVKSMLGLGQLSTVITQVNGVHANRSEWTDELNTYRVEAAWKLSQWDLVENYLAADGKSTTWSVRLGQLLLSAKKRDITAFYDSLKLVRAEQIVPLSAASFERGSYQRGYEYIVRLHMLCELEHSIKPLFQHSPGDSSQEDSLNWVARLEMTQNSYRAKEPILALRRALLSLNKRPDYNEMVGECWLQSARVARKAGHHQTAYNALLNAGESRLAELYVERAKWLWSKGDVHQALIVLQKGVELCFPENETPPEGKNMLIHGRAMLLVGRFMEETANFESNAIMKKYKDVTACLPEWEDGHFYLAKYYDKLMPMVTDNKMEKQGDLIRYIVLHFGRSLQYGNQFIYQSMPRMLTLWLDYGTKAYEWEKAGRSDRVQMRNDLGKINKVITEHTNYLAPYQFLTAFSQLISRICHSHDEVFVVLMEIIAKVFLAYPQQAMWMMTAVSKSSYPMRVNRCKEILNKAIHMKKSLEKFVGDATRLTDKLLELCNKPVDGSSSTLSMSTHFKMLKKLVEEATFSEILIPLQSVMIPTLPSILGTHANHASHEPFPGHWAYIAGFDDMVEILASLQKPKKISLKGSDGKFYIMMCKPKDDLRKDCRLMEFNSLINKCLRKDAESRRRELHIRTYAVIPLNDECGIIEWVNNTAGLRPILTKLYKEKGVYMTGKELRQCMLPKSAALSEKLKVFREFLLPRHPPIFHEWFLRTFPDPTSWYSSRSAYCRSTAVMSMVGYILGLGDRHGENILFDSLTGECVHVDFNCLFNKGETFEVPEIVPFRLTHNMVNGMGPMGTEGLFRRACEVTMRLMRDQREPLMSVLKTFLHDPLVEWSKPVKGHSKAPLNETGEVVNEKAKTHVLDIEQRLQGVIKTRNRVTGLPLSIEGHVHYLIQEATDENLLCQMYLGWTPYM
Chain of full-length human ATR protein (Q8WXE1 other isoform, or with tags, fused parts or gaps partner): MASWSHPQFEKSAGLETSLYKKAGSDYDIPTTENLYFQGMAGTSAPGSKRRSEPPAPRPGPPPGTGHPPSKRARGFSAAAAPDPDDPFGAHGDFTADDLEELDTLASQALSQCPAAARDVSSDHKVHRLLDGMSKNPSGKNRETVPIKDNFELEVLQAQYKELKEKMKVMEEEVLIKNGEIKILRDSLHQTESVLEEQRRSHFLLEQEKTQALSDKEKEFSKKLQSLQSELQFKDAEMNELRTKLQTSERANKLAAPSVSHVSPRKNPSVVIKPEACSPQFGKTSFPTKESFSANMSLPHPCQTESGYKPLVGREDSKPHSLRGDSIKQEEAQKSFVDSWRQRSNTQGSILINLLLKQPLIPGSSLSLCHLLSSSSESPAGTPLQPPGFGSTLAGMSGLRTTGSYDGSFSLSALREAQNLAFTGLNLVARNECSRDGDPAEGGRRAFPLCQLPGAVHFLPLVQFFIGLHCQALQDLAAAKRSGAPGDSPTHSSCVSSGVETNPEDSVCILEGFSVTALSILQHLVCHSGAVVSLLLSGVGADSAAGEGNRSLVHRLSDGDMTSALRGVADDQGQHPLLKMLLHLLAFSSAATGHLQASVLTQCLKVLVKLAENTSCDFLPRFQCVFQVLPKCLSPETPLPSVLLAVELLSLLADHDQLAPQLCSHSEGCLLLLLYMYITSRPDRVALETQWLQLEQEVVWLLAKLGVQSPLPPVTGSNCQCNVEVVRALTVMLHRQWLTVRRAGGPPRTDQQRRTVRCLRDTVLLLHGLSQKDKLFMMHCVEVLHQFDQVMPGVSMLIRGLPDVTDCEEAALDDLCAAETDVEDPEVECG
In short: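 Full-length human GST-ATR co-purified with ATRIP, pre-complexed 30 min at 22 °C with anti-GST-Tb antibody, then pre-bound with compound 10 min. Tracer A or B added (2 µl of 100 nM solution), 30 min at 22 °C.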
With `CCn1nc(C(F)(F)F)cc1-c1cc(N2CCOC[C@H]2C)nc2c(-c3ccn[nH]3)nccc12` [Example 119, 4-[1-ethyl-3-(trifluoromethyl)-1H-pyrazol-5-yl]-2-[(3R)-3-methylmorpholin-4-yl]-8-(1H-pyrazol-5-yl)-1,7-naphthyridine] the IC50 was 11.7 nM.
Work on `Cc1cc(-c2cc(N3CCOCC3)nc3c(-c4ccn[nH]4)nccc23)cnc1S(C)(=O)=O` [Example 16, 4-[5-methyl-6-(methylsulfonyl)pyridin-3-yl]-2-(morpholin-4-yl)-8-(1H-pyrazol-5-yl)-1,7-naphthyridine] yielded an IC50 of 173 nM.
For `C[C@@H]1COCCN1c1cc(C#N)c2ccnc(-c3ccn[nH]3)c2n1` [Example 35, 2-((R)-3-methylmorpholin-4-yl)-8-(-2H-pyrazol-3-yl]-[1,7]naphthyridine-4-carbonitrile], the IC50 was 122 nM.
With `Cn1nccc1-c1cc(N2CCOCC2)nc2c(-c3ccn[nH]3)nccc12` [Example 348, 4-(1-methyl-1H-pyrazol-5-yl)-2-(morpholin-4-yl)-8-(1H-pyrazol-5-yl)-1,7-naphthyridine] the IC50 was 55.3 nM.
In the case of `C[C@@H]1COCCN1c1cc(C2CCS(=O)(=O)CC2)c2ccnc(-c3ccn[nH]3)c2n1` [Example 204, 4-(1,1-dioxidotetrahydro-2H-thiopyran-4-yl)-2-[(3R)-3-methylmorpholin-4-yl]-8-(1H-pyrazol-5-yl)-1,7-naphthyridine], the IC50 is reported as 6.76 nM.
`CCOC(=O)N=S(C)(=O)c1cccc(-c2cc(N3CCOCC3)nc3c(-c4ccn[nH]4)nccc23)c1` (stereo not shown) [Example 13] was tested, and the IC50 was 141 nM.
`C[C@@H]1COCCN1c1cc(-c2cc(F)ccc2N)c2ccnc(-c3ccn[nH]3)c2n1` [Example 75, 4-fluoro-2-[2-[(3R)-3-methylmorpholin-4-yl]-8-(1H-pyrazol-5-yl)-1,7-naphthyridin-4-yl]aniline] showed an IC50 of 6.97 nM.
With `CC(C)(C)n1cc(-c2cc(N3CCOCC3)nc3c(-c4ccn[nH]4)nccc23)cn1` [Example 407, 4-(1-tert-butyl-1H-pyrazol-4-yl)-2-(morpholin-4-yl)-8-(1H-pyrazol-5-yl)-1,7-naphthyridine] the IC50 was 309 nM.
Compound `CCS(=N)(=O)c1ccc(-c2cc(N3CCOCC3)nc3c(-c4ccn[nH]4)nccc23)cc1` (stereo not shown) [Example 12, 4-[4-(S-ethylsulfonimidoyl)phenyl]-2-(morpholin-4-yl)-8-(1H-pyrazol-5-yl)-1,7-naphthyridine] has an IC50 of 135 nM.
`Cc1cnn(C)c1-c1cc(N2CCOC[C@H]2C)nc2c(-c3ccn[nH]3)nccc12` [Example 114, 4-(1,4-dimethyl-1H-pyrazol-5-yl)-2-[(3R)-3-methylmorpholin-4-yl]-8-(1H-pyrazol-5-yl)-1,7-naphthyridine] was tested, and the IC50 was 7.35 nM.
With `C[C@@H]1COCCN1c1cc(-c2ccn(CCO)n2)c2ccnc(-c3ccn[nH]3)c2n1` [Example 160, 2-(3-{2-[(3R)-3-methylmorpholin-4-yl]-8-(1H-pyrazol-5-yl)-1,7-naphthyridin-4-yl}-1H-pyrazol-1-yl)ethanol] the IC50 was 37.2 nM.
Work on `Cc1cccc(-c2cc(N3CCOCC3)nc3c(-c4ccn[nH]4)nccc23)c1` [Example 308, 4-(3-methylphenyl)-2-(morpholin-4-yl)-8-(1H-pyrazol-5-yl)-1,7-naphthyridine] yielded an IC50 of 131 nM.
For `Fc1ccc(-c2cc(N3CCOCC3)nc3c(-c4ccn[nH]4)nccc23)cn1` [Example 360, 4-(6-fluoropyridin-3-yl)-2-(morpholin-4-yl)-8-(1H-pyrazol-5-yl)-1,7-naphthyridine], the IC50 was 93.8 nM.
`C[C@@H]1COCCN1c1cc(OCCCS(C)(=O)=O)c2ccnc(-c3ccn[nH]3)c2n1` [Example 197, 2-[(3R)-3-methylmorpholin-4-yl]-4-[3-(methylsulfonyl)propoxy]-8-(1H-pyrazol-5-yl)-1,7-naphthyridine] gave an IC50 of 72.4 nM.
With `C[C@@H]1COCCN1c1cc(N=S(C)(=O)c2ccccc2O)c2ccnc(-c3ccn[nH]3)c2n1` (stereo partly drawn) [Example 276, 2-(methyl-N-{2-[(3R)-3-methylmorpholin-4-yl]-8-(1H-pyrazol-5-yl)-1,7-naphthyridin-4-yl}sulfonimidoyl)phenol] the IC50 was 237 nM.
With `Cc1nn(C)c(C)c1-c1cc(N2CCOC[C@H]2C)nc2c(-c3ccn[nH]3)nccc12` [Example 258, 2-[(3R)-3-methylmorpholin-4-yl]-8-(1H-pyrazol-5-yl)-4-(1,3,5-trimethyl-1H-pyrazol-4-yl)-1,7-naphthyridine] the IC50 was 7.66 nM.
Work on `C[C@@H]1COCCN1c1cc(-c2ccnn2CCF)c2ccnc(-c3ccn[nH]3)c2n1` [Example 159, 4-[1-(2-fluoroethyl)-1H-pyrazol-5-yl]-2-[(3R)-3-methylmorpholin-4-yl]-8-(1H-pyrazol-5-yl)-1,7-naphthyridine] yielded an IC50 of 16.5 nM.
Work on `CCSc1cc(N2CCOCC2)nc2c(-c3ccn[nH]3)nccc12` [Example 209, 4-(ethylsulfanyl)-2-(morpholin-4-yl)-8-(1H-pyrazol-5-yl)-1,7-naphthyridine] yielded an IC50 of 385 nM.
Compound `CCOP(=O)(CC(C)C)c1cc(N2CCOC[C@H]2C)nc2c(-c3ccn[nH]3)nccc12` (stereo partly drawn) [Example 144, Ethyl isobutyl{2-[(3R)-3-methylmorpholin-4-yl]-8-(1H-pyrazol-5-yl)-1,7-naphthyridin-4-yl}phosphinate] has an IC50 of 75.1 nM.
For `COc1cc(OC)cc(-c2cc(N3CCOCC3)nc3c(-c4ccn[nH]4)nccc23)c1` [Example 307, 4-(3,5-dimethoxyphenyl)-2-(morpholin-4-yl)-8-(1H-pyrazol-5-yl)-1,7-naphthyridine], the IC50 was 189 nM.
For `C[C@@H]1COCCN1c1cc(N2CCOCC2)c2ccnc(-c3ccn[nH]3)c2n1` [Example 145, 2-[(3R)-3-methylmorpholin-4-yl]-4-(morpholin-4-yl)-8-(1H-pyrazol-5-yl)-1,7-naphthyridine], the IC50 was 18.2 nM.
Work on `COc1ccc(-c2cc(N3CCOCC3)nc3c(-c4ccn[nH]4)nccc23)c(OC)c1` [Example 332, 4-(2,4-dimethoxyphenyl)-2-(morpholin-4-yl)-8-(1H-pyrazol-5-yl)-1,7-naphthyridine] yielded an IC50 of 68.1 nM.
Work on `C1=CCN(c2cc(N3CCOCC3)nc3c(-c4ccn[nH]4)nccc23)C1` [Example 417, 4-(2,5-dihydro-1H-pyrrol-1-yl)-2-(morpholin-4-yl)-8-(1H-pyrazol-5-yl)-1,7-naphthyridine] yielded an IC50 of 1070 nM.
`COCc1noc(C)c1-c1cc(N2CCOC[C@H]2C)nc2c(-c3ccn[nH]3)nccc12` [Example 135, 4-[3-(methoxymethyl)-5-methyl-1,2-oxazol-4-yl]-2-[(3R)-3-methylmorpholin-4-yl]-8-(1H-pyrazol-5-yl)-1,7-naphthyridine] showed an IC50 of 32.9 nM.
`C[C@@H]1COCCN1c1cc(P(C)(C)=O)c2ccnc(-c3ccn[nH]3)c2n1` [Example 142, 4-(dimethylphosphoryl)-2-[(3R)-3-methylmorpholin-4-yl]-8-(1H-pyrazol-5-yl)-1,7-naphthyridine] showed an IC50 of 44.1 nM.
For `C[C@@H]1COCCN1c1cc(N2CCn3ccnc3C2)c2ccnc(-c3ccn[nH]3)c2n1` [Example 86, 4-(5,6-dihydroimidazo[1,2-a]pyrazin-7(8H)-yl)-2-[(3R)-3-methylmorpholin-4-yl]-8-(1H-pyrazol-5-yl)-1,7-naphthyridine], the IC50 was 10.9 nM.
In the case of `C/C=C/c1cc(N2CCOCC2)nc2c(-c3ccn[nH]3)nccc12` [Example 325, 2-(morpholin-4-yl)-4-[(1E)-prop-1-en-1-yl]-8-(1H-pyrazol-5-yl)-1,7-naphthyridine], the IC50 is reported as 34.4 nM.
With `C[C@@H]1COCCN1c1cc(N2CCN(C)C(=O)C2)c2ccnc(-c3ccn[nH]3)c2n1` [Example 157, 1-methyl-4-{2-[(3R)-3-methylmorpholin-4-yl]-8-(1H-pyrazol-5-yl)-1,7-naphthyridin-4-yl}piperazin-2-one] the IC50 was 91.8 nM.
Compound `Cc1cc(-c2cc(N3CCOC[C@H]3C)nc3c(-c4ccn[nH]4)nccc23)on1` [Example 112, 2-[(3R)-3-methylmorpholin-4-yl]-4-(3-methyl-1,2-oxazol-5-yl)-8-(1H-pyrazol-5-yl)-1,7-naphthyridine] has an IC50 of 4.74 nM.
Compound `Clc1ccc(-c2cc(N3CCOCC3)nc3c(-c4ccn[nH]4)nccc23)cc1` [Example 316, 4-(4-chlorophenyl)-2-(morpholin-4-yl)-8-(1H-pyrazol-5-yl)-1,7-naphthyridine] has an IC50 of 53.2 nM.
For `CCS(=O)(=O)N1CCN(c2cc(N3CCOCC3)nc3c(-c4ccn[nH]4)nccc23)CC1` [Example 433, 4-[4-(ethylsulfonyl)piperazin-1-yl]-2-(morpholin-4-yl)-8-(1H-pyrazol-5-yl)-1,7-naphthyridine], the IC50 was 41.6 nM.
Compound `C[C@@H]1COCCN1c1cc(-c2ccn(C)c2)c2ccnc(-c3ccn[nH]3)c2n1` [Example 262, 2-[(3R)-3-methylmorpholin-4-yl]-4-(1-methyl-1H-pyrrol-3-yl)-8-(1H-pyrazol-5-yl)-1,7-naphthyridine] has an IC50 of 42.2 nM.
Compound `C[C@@H]1COCCN1c1cc(-c2ccn[nH]2)c2ccnc(-c3ccn[nH]3)c2n1` [Example 205, 2-[(3R)-3-methylmorpholin-4-yl]-4,8-di(1H-pyrazol-5-yl)-1,7-naphthyridine] has an IC50 of 49.3 nM.
In the case of `Cc1noc(C)c1-c1cc(N2CCOCC2)nc2c(-c3ccn[nH]3)nccc12` [Example 379, 4-(3,5-dimethyl-1,2-oxazol-4-yl)-2-(morpholin-4-yl)-8-(1H-pyrazol-5-yl)-1,7-naphthyridine], the IC50 is reported as 69.8 nM.
`COc1cccc(-c2cc(N3CCOCC3)nc3c(-c4ccn[nH]4)nccc23)c1F` [Example 317, 4-(2-fluoro-3-methoxyphenyl)-2-(morpholin-4-yl)-8-(1H-pyrazol-5-yl)-1,7-naphthyridine] showed an IC50 of 66.5 nM.
In the case of `CC(C)c1ccc(-c2cc(N3CCOCC3)nc3c(-c4ccn[nH]4)nccc23)cc1` [Example 329, 2-(morpholin-4-yl)-4-[4-(propan-2-yl)phenyl]-8-(1H-pyrazol-5-yl)-1,7-naphthyridine], the IC50 is reported as 169 nM.
`C[C@@H]1COCCN1c1cc(-c2ccnn2CC(F)(F)F)c2ccnc(-c3ccn[nH]3)c2n1` [Example 156, 2-[(3R)-3-methylmorpholin-4-yl]-8-(1H-pyrazol-5-yl)-4-[1-(2,2,2-trifluoroethyl)-1H-pyrazol-5-yl]-1,7-naphthyridine] was tested, and the IC50 was 80.1 nM.

Same assay, conditions: tracer B, TR-FRET; read-out: ATR binding (tracer B) IC50
In the case of `C[C@@H]1COCCN1c1cc(C#N)c2ccnc(-c3ccn[nH]3)c2n1` [Example 35, 2-((R)-3-methylmorpholin-4-yl)-8-(-2H-pyrazol-3-yl]-[1,7]naphthyridine-4-carbonitrile], the IC50 is reported as 75.5 nM.
In the case of `CCOC(=O)N=S(C)(=O)c1cccc(-c2cc(N3CCOCC3)nc3c(-c4ccn[nH]4)nccc23)c1` (stereo not shown) [Example 13], the IC50 is reported as 104 nM.
`CCS(=N)(=O)c1ccc(-c2cc(N3CCOCC3)nc3c(-c4ccn[nH]4)nccc23)cc1` (stereo not shown) [Example 12, 4-[4-(S-ethylsulfonimidoyl)phenyl]-2-(morpholin-4-yl)-8-(1H-pyrazol-5-yl)-1,7-naphthyridine] was tested, and the IC50 was 47.2 nM.
